Measurements: the OligoGym collection
Oligonucleotides are written 5' to 3', each unit as a sugar letter and its base; * is a phosphorothioate linkage, no mark a phosphodiester; rarer units and linkages stand in square brackets, end groups in braces. Plain capitals give the bases only. d = 2'-deoxy (DNA); r = 2'-OH (RNA)

Biological target: DENND5A
Experiment: reporter assay of Huesken 2005
Conditions: siRNA
Further: test concentration or dose not given here.

| Substance | normalised inhibition (eCFP-eYFP dual reporter) |
| --- | --- |
| sense rUrGrCrCrGrCrArArUrArArGrArCrCrArArGrAdTdT / antisense rUrCrUrUrGrGrUrCrUrUrArUrUrGrCrGrGrCrAdTdT | 69.3% |
| sense rUrGrCrCrGrCrUrCrCrCrArCrCrUrCrCrUrGrGdTdT / antisense rCrCrArGrGrArGrGrUrGrGrGrArGrCrGrGrCrAdCdC | 24.9% |
| sense rUrGrGrArUrGrArCrCrGrGrUrCrArArArGrCrUdTdT / antisense rArGrCrUrUrUrGrArCrCrGrGrUrCrArUrCrCrAdGdG | 67.7% |
| sense rUrGrGrGrGrUrCrUrArUrGrGrGrCrCrArArUrAdTdT / antisense rUrArUrUrGrGrCrCrCrArUrArGrArCrCrCrCrAdGdA | 66.7% |
| sense rUrGrUrUrUrGrCrArGrArUrUrArUrGrArGrGrCdTdT / antisense rGrCrCrUrCrArUrArArUrCrUrGrCrArArArCrAdTdC | 38.5% |
| sense rUrUrArCrCrArGrArGrArCrUrGrArUrGrArCrUdTdT / antisense rArGrUrCrArUrCrArGrUrCrUrCrUrGrGrUrArAdTdG | 28.8% |
| sense rUrUrCrArUrUrGrArCrArArCrArArArArUrArAdTdT / antisense rUrUrArUrUrUrUrGrUrUrGrUrCrArArUrGrArAdAdG | 97.8% |
| sense rUrUrCrCrUrArCrGrArGrCrUrUrCrUrUrArArGdTdT / antisense rCrUrUrArArGrArArGrCrUrCrGrUrArGrGrArAdTdG | 59.8% |
| sense rUrUrCrCrUrUrGrArUrUrCrGrUrGrUrGrCrUrGdTdT / antisense rCrArGrCrArCrArCrGrArArUrCrArArGrGrArAdTdT | 22.1% |
| sense rUrUrCrGrUrGrUrGrCrUrGrCrArGrArCrArUrUdTdT / antisense rArArUrGrUrCrUrGrCrArGrCrArCrArCrGrArAdTdC | 40.2% |
| sense rUrUrCrUrGrGrGrGrUrCrUrArUrGrGrGrCrCrAdTdT / antisense rUrGrGrCrCrCrArUrArGrArCrCrCrCrArGrArAdAdA | 63.2% |
| sense rUrUrGrArCrCrArArGrArUrGrCrArGrUrArGrGdTdT / antisense rCrCrUrArCrUrGrCrArUrCrUrUrGrGrUrCrArAdAdG | 57.9% |
| sense rUrUrGrArGrArArGrArArCrArUrUrCrArArArUdTdT / antisense rArUrUrUrGrArArUrGrUrUrCrUrUrCrUrCrArAdTdG | 54.7% |
| sense rUrUrGrCrArUrUrCrCrUrArCrGrArGrCrUrUrCdTdT / antisense rGrArArGrCrUrCrGrUrArGrGrArArUrGrCrArAdAdG | 50.8% |
| sense rUrUrUrCrArCrUrCrArGrArUrGrUrUrUrGrCrAdTdT / antisense rUrGrCrArArArCrArUrCrUrGrArGrUrGrArArAdCdG | 42.4% |
| sense rUrUrUrGrGrGrUrUrUrGrCrCrCrUrCrArCrArUdTdT / antisense rArUrGrUrGrArGrGrGrCrArArArCrCrCrArArAdTdG | 73.4% |

Biological target: P2RX3
Experiment: reporter assay of Huesken 2005
Conditions: siRNA

| Substance | normalised inhibition (eCFP-eYFP dual reporter) |
| --- | --- |
| sense rArArCrCrGrArGrUrArGrUrUrCrArGrCrUrUrCdTdT / antisense rGrArArGrCrUrGrArArCrUrArCrUrCrGrGrUrUdGdA | 62% |
| sense rArArGrArCrCrUrGrCrCrGrCrUrUrCrCrArCrCdTdT / antisense rGrGrUrGrGrArArGrCrGrGrCrArGrGrUrCrUrUdCdA | 39.9% |
| sense rArArUrCrArGrArUrGrCrArArGrGrArUrUrCrUdTdT / antisense rArGrArArUrCrCrUrUrGrCrArUrCrUrGrArUrUdTdT | 79.2% |
| sense rArCrArGrCrCrArGrGrGrArCrArUrGrArArGrAdTdT / antisense rUrCrUrUrCrArUrGrUrCrCrCrUrGrGrCrUrGrUdCdA | 78.1% |
| sense rArCrArGrCrUrCrUrGrUrGrCrUrCrCrGrGrArCdTdT / antisense rGrUrCrCrGrGrArGrCrArCrArGrArGrCrUrGrUdAdG | 59.2% |
| sense rArCrCrArGrUrArCrArArArGrCrCrArArGrArAdTdT / antisense rUrUrCrUrUrGrGrCrUrUrUrGrUrArCrUrGrGrUdCdG | 82.9% |
| sense rArCrCrArUrCrGrGrGrArUrCrArUrCrArArCrCdTdT / antisense rGrGrUrUrGrArUrGrArUrCrCrCrGrArUrGrGrUdCdC | 25.1% |
| sense rArCrCrCrGrGrCrUrCrGrArCrArGrCrGrUrUrUdTdT / antisense rArArArCrGrCrUrGrUrCrGrArGrCrCrGrGrGrUdGdA | 94.1% |
| sense rArCrCrUrGrUrGrArGrArUrCrCrArGrGrGrCrUdTdT / antisense rArGrCrCrCrUrGrGrArUrCrUrCrArCrArGrGrUdCdC | 50.2% |
| sense rArCrGrCrCrArArCrArGrArGrUrCrArUrGrGrAdTdT / antisense rUrCrCrArUrGrArCrUrCrUrGrUrUrGrGrCrGrUdAdG | 89.2% |
| sense rArCrGrCrCrArCrCrUrCrArGrGrGrCrArCrCrUdTdT / antisense rArGrGrUrGrCrCrCrUrGrArGrGrUrGrGrCrGrUdCdA | 8.6% |
| sense rArCrUrCrCrUrUrCrArCrCrCrGrGrCrUrCrGrAdTdT / antisense rUrCrGrArGrCrCrGrGrGrUrGrArArGrGrArGrUdAdT | 80.2% |
| sense rArCrUrUrCrArCrUrArUrUrUrUrCrArUrCrArAdTdT / antisense rUrUrGrArUrGrArArArArUrArGrUrGrArArGrUdTdC | 92.9% |
| sense rArCrUrUrUrGrUrArGrGrGrUrGrGrGrUrUrUrUdTdT / antisense rArArArArCrCrCrArCrCrCrUrArCrArArArGrUdAdG | 89.4% |
| sense rArGrArCrUrArCrGrCrUrGrArArArArUrCrGrCdTdT / antisense rGrCrGrArUrUrUrUrCrArGrCrGrUrArGrUrCrUdCdA | 77.1% |
| sense rArGrGrArGrArArArUrArCrCrGrCrUrGrUrGrUdTdT / antisense rArCrArCrArGrCrGrGrUrArUrUrUrCrUrCrCrUdCdA | 71.8% |
| sense rArGrGrUrGrGrArCrArCrArGrUrGrGrArArArCdTdT / antisense rGrUrUrUrCrCrArCrUrGrUrGrUrCrCrArCrCrUdCdC | 91.4% |
| sense rArGrUrArCrArArArGrCrCrArArGrArArGrUrUdTdT / antisense rArArCrUrUrCrUrUrGrGrCrUrUrUrGrUrArCrUdGdG | 99.5% |
| sense rArGrUrCrGrGrUrGrGrUrUrGrUrGrArArGrArGdTdT / antisense rCrUrCrUrUrCrArCrArArCrCrArCrCrGrArCrUdTdG | 64.9% |
| sense rArGrUrUrCrArGrCrUrUrCrUrGrArUrCrArUrCdTdT / antisense rGrArUrGrArUrCrArGrArArGrCrUrGrArArCrUdAdC | 72.3% |
| sense rArUrCrArArGrArArCrArGrCrArUrCrCrGrUrUdTdT / antisense rArArCrGrGrArUrGrCrUrGrUrUrCrUrUrGrArUdGdA | 70.6% |
